Where “and” joins values, the source holds several entries; their conditions need not be identical. Equal entries are not always repeated. Where two headings read alike, the source gives them in different places.
Key:
mice = details: 6 week old mice; preliminary
West Nile virus (WNV) [1] = system: West Nile virus (WNV)
Excerpt: WNV is a toga virus of the flavivirus group, a positive single stranded RNA virus, which when injected IP to mice usually kills them within 5-8 days as a result of extensive damage to the central nervous system.

mouse macrophages = assay: Survival of mouse macrophage monolayer incubated with complex
Method: (§2) All cultures were then infected with 10^4 PFU/plate. After 72 h incubation the supernatants were collected and the virus was titrated against Vera cells.

IL-2 receptors = assay: IL-2 receptor sites on human mononuclear cells, fluoresceinated antibody; type: cell-based; details: 1 μg/ml; 24 hours incubation
Method: This example provides an assay to detect the presence of receptor sites for IL-2. […] The cells were washed twice with PBS and then incubated with a specific fluoresceinated antibody against IL-2 receptors as described in Uchiyama et al, J. Immunol.

West Nile virus (WNV) [2] = system: West Nile virus (WNV); remark: listed apart in the source
Method: as §2

[3] = system: colony stimulating factor (CSF)
Method: (§1) Spleens were removed from 15, male Balb-c mice 6 to 8 weeks of age. The spleen cells were pushed through stainless steel 60 mesh (U.S. Standard) nets resting in 5 mm Petri dishes containing PBS in order to separate the cells. The cells were then collected into centrifuge tubes and spun at 1000 rpm for 10 minutes. The supernatant was discarded and cells were treated with 5 ml of hypotonic buffer (0.15M NH4Cl; 0.01M KHCO3 dissolved in double distilled water, pH 7.2) for exactly two minutes. Thereafter, PBS was added to the cells and the test tubes were centrifuged for 10 minutes at 1000 rpm. The cells were rinsed twice and counted in a hemocytometer using trypan blue to test for viability. The cells were brought to a concentration of 10^7viable cells/ml.

IL-2 [4] = details: 10^7 viable cells/ml
Method: as §1

IL-2 [5] = system: IL-2
[6] = 5 pg (as starting material of Preparation 1)
[7] = 50 pg (as starting material of Preparation 1)
[8] = 500 pg (as starting material of Preparation 1)
[9] = 5 ng (as starting material of Preparation 1)
[10] = 50 ng (as starting material of Preparation 1)
[11] = 500 ng (as starting material of Preparation 1)
[12] = 5 μg (as starting material of Preparation 1)
[13] = 50 μg (as starting material of Preparation 1)

`Cl[Te]1(Cl)(Cl)OCCO1.N` [Example 1, equimolar complex of TeO2 and ethylene glycol, NH4Cl salt] was tested, and the “% Survival” value (fibrosarcoma cells; 10 μg IP at intervals, 4 days after inoculation with tumor cells) was 100%, the “% Survival” value (fibrosarcoma cells; 10 μg IP at intervals, 9 days after inoculation with tumor cells) was 100% and the “% Survival” value (fibrosarcoma cells; 10 μg IP at intervals, 23 days after inoculation with tumor cells) was 100%. For the same compound, the “% Survival” value (fibrosarcoma cells; 10 μg IP at intervals, 30 days after inoculation with tumor cells) was 100%, the “% Survival” value (fibrosarcoma cells; 10 μg IP at intervals, 37 days after inoculation with tumor cells) was 100% and the “% Survival” value (fibrosarcoma cells; 39 days after inoculation with tumor cells, start of increased dosage regimen) was 100%. For the same compound, the “% Survival” value (fibrosarcoma cells; 41 days after inoculation, increased dosage regimen from day 39) was 100%, the “% Survival” value (fibrosarcoma cells; 43 days after inoculation, increased dosage regimen from day 39) was 100% and the “% Survival” value (fibrosarcoma cells; 46 days after inoculation, increased dosage regimen from day 39) was 80%. The “% Survival” value (fibrosarcoma cells; 48 days after inoculation, increased dosage regimen from day 39) was 80%, the “% Survival” value (fibrosarcoma cells; 50 days after inoculation, increased dosage regimen from day 39) was 80% and the “% Survival” value (fibrosarcoma cells; 53 days after inoculation, increased dosage regimen from day 39) was 60%. The “% Survival” value (fibrosarcoma cells; 60 days after inoculation, increased dosage regimen from day 39) was 40%, the “% Survival” value (fibrosarcoma cells; 67 days after inoculation, increased dosage regimen from day 39) was 20% and the “% Survival” value (fibrosarcoma cells; 68 days after inoculation, increased dosage regimen from day 39) was 0%. For the same compound, the mortality (fibrosarcoma cells; group (b), until just after the increased dosage regimen (day 39)) was “^1Day 39 marked the start of an increased dosage regimen to determine the toxicity of the complex of Example 1. The mortality results for group (b) were 0% until just after the increased dosage regimen”, the LD50 (mice) was 300 μg/25 g of body weight and the “susceptibility of West Nile virus infections in mice” value (West Nile virus (WNV) [1]; mouse, in vivo) was “susceptible”. For the same compound, the “# Alive/Total” value (West Nile virus (WNV) [1]; mouse, in vivo, ip) was 3/5, the “fate of the three survivors after day 8” value (West Nile virus (WNV) [1]; second experiment, 10^3 IPLD50 virus + complex) was “Two out of the remaining three survived an additional 8 days, whereas the third remained alive without any manifestations of clinical symptoms” and the “state of macrophages after 24 h incubation” value (mouse macrophages; 1 μg and 0.1 μg (others)) was “remained unaffected”. For the same compound, the “state of macrophages after 24 h incubation” value (mouse macrophages; 5 μg) was “died”, the “cells positive for IL-2 receptors” value (IL-2 receptors) was 20% and the “reduction in virus yield” value (West Nile virus (WNV) [2]) was “ten”. The “reduction of virus yield” value (West Nile virus (WNV) [2]) was 40 fold, the CSF [3, 6] was 140 colonies/dish and the CSF [3, 7] was 260 colonies/dish. The CSF [3, 8] was 175 colonies/dish, the CSF [3, 9] was 120 colonies/dish and the CSF [3, 10] was 75 colonies/dish. For the same compound, the CSF [3, 11] was 25 colonies/dish, the CSF [3, 12] was 5 colonies/dish and the CSF [3, 13] was 2 colonies/dish. The IL-2 (IL-2 [4]; [6]) was 12,000 cpm, the IL-2 (IL-2 [4]; [7]) was 38,000 cpm and the IL-2 (IL-2 [4]; [8]) was 30,000 cpm. For the same compound, the IL-2 (IL-2 [4]; [9]) was 15,000 cpm, the IL-2 (IL-2 [4]; [10]) was 6,000 cpm and the IL-2 (IL-2 [4]; [11]) was 5,000 cpm. For the same compound, the IL-2 (IL-2 [4]; [12]) was 5,000 cpm, the IL-2 (IL-2 [4]; [13]) was 5,000 cpm and the IL-2 production (IL-2 [5]; NORMAL subjects, PHA +, 5 μg 0.2 ml PBS) was 30.4 CPM × 10^−3 and 38.9 CPM × 10^−3 and 36.4 CPM × 10^−3. The IL-2 production (IL-2 [5]; NORMAL subjects, PHA +, 1:50 PBS dilution of 5 μg/0.2 ml) was 38.9 CPM × 10^−3 and 53.5 CPM × 10^−3 and 48.2 CPM × 10^−3, the IL-2 production (IL-2 [5]; NORMAL subjects, PHA +, 1:100 PBS dilution of 5 μg/0.2 ml) was 54.2 CPM × 10^−3 and 44.8 CPM × 10^−3 and 38.6 CPM × 10^−3 and the IL-2 production (IL-2 [5]; NORMAL subjects, PHA +, 1:200 PBS dilution of 5 μg/0.2 ml) was 49.8 CPM × 10^−3 and 38.3 CPM × 10^−3 and 38.6 CPM × 10^−3. For the same compound, the IL-2 production (IL-2 [5]; NORMAL subjects, PHA −, 5 μg 0.2 ml PBS) was 2.1 CPM × 10^−3 and 2.3** CPM × 10^−3, the IL-2 production (IL-2 [5]; NORMAL subjects, PHA −, 1:50 PBS dilution of 5 μg/0.2 ml) was 52.2 CPM × 10^−3 and 50.8 CPM × 10^−3 and 43.6 CPM × 10^−3 and the IL-2 production (IL-2 [5]; NORMAL subjects, PHA −, 1:100 PBS dilution of 5 μg/0.2 ml) was 50.3 CPM × 10^−3 and 46.1 CPM × 10^−3 and 38.4 CPM × 10^−3. For the same compound, the IL-2 production (IL-2 [5]; NORMAL subjects, PHA −, 1:200 PBS dilution of 5 μg/0.2 ml) was 47.1 CPM × 10^−3 and 31.3 CPM × 10^−3 and 30.1 CPM × 10^−3, the IL-2 production (IL-2 [5]; SLE patients, PHA +, 5 μg 0.2 ml PBS) was 6.3 CPM × 10^−3 and 8.2 CPM × 10^−3 and 4.1 CPM × 10^−3 and the IL-2 production (IL-2 [5]; SLE patients, PHA +, 1:50 PBS dilution of 5 μg/0.2 ml) was 24.2 CPM × 10^−3 and 28.1 CPM × 10^−3 and 23.8 CPM × 10^−3. The IL-2 production (IL-2 [5]; SLE patients, PHA +, 1:100 PBS dilution of 5 μg/0.2 ml) was 19.7 CPM × 10^−3 and 24.0 CPM × 10^−3 and 20.2 CPM × 10^−3, the IL-2 production (IL-2 [5]; SLE patients, PHA +, 1:200 PBS dilution of 5 μg/0.2 ml) was 15.4 CPM × 10^−3 and 18.6 CPM × 10^−3 and 16.8 CPM × 10^−3 and the IL-2 production (IL-2 [5]; SLE patients, PHA −, 5 μg 0.2 ml PBS) was 2.0 CPM × 10^−3 and 2.4 CPM × 10^−3. For the same compound, the IL-2 production (IL-2 [5]; SLE patients, PHA −, 1:100 PBS dilution of 5 μg/0.2 ml) was 32.1 CPM × 10^−3 and 35.1 CPM × 10^−3 and 18.1 CPM × 10^−3.

From patent US8048915B2, “Biologically active complex” (BioMas Ltd., priority 2001, dated 2011)
